Experimental findings from patent US8227232B2, “Thermostable L-ribose isomerase and method for producing same and use of same” (National University Corporation Kagawa Univeristy, priority 2006, dated 2012) are described below.

For assay [1], the system named is thermostable L-ribose isomerase derived from Raoultella ornithinolytica. The assay can be described thus: L-ribose isomerase activity assay on various aldose substrates (cysteine/carbazole method). The format is biochemical. As to conditions: aldose as substrate; for relative activity to the activity on L-ribose: activity on L-ribose designated as 100%. The protocol: The activity of the L-ribose isomerase of the invention can be assayed as follows. 0.05 ml of 0.05 M glycine-NaOH buffer (pH 9.0), 0.05 ml of 0.05 M L-ribose and the enzyme solution were mixed together to a total volume of 0.5 ml, for the enzyme reaction at 45° C., to generate L-ribulose, which is assayed by the cysteine/carbazole method. One unit of the enzyme activity is designated as the enzyme amount to generate 1 μmol of L-ribulose per one minute.
Using 50 mM L-ribose as a substrate, the enzyme reaction continued at 45° C. for 10 minutes, so that the amount of the generated ketose (L-ribulose) was assayed by the cysteine/carbazole method. As to the temperature stability, the enzyme activity was assayed after 10-min treatment at individual temperatures. As to the optimal pH conditions, the enzyme reaction was performed at 45° C. for 10 minutes in 50 mM acetate buffer (pH 2 to 6), 50 mM sodium phosphate buffer (pH 6 to 8), 50 mM Tris-HCl buffer (pH 8 to 9) or 50 mM glycine-sodium hydroxide buffer (pH 9 to 11), using 50 mM L-ribose as substrate, to assay the amount of a ketose (L-ribulose) generated thereafter by the cysteine/carbazole method (Table 2). The enzyme reaction was done at the composition shown in Table 2 at 45° C. for 10 minutes (Table 3), and the reaction was terminated by adding 50 μl of 10% TCA (trichloroacetic acid). […] After completion of the reaction, absorbance at 540 nm was measured with an ultraviolet/visible spectrophotometer V530 (JASCO Corporation). Additionally, the amount of the enzyme generating 1 μmol L-ribulose per one minute was designated as one unit.
According to the assay method of the activity, the activity of the enzyme was assayed, using various aldose types as substrates. The activities on various aldose types are shown in relative activities to the activity on L-ribose, which is designated as 100%.

Assay [2] deals with thermostable L-ribose isomerase from Raoultella ornithinolytica. Briefly: Confirmation of enzyme reaction product by HPLC. The format is biochemical. As to conditions: 50 mM substrate, crude enzyme solution, 40° C., 24 hours. On the procedure:
A crude enzyme solution (0.65 U/ml) was recovered after culturing in a culture medium with 0.1% D-lyxose in 2% TSB, at 37° C. for 2 days and ultrasonication for extraction; 150 μl of the crude enzyme solution reacted with 50 mM of a substrate including individual ketose types such as L-ribose, D-fructose, D-tagatose and L-psicose at 40° C. for 24 hours. After reaction, the enzyme was inactivated under heating in hot water for 2 minutes, and centrifuged at 12,000 rpm for 5 minutes to recover the supernatant. Then, about 2 spoonfuls of a desalted resin (mixed and dried at a ratio of IRA411:SKIB=2:1) in a microspatula were added to the resulting supernatant, for mixing under inversion. After one hour, the solution was filtered through a 0.45-μm filter, for high-performance liquid chromatography (HPLC). As the column, Hitachi HPLC column GL-C611 (manufactured by Hitachi Chemical Industry Co., Ltd.) was used; as the detector, a differential refractive meter (L-7490 refractive index detector manufactured by Hitachi Hightech Co., Ltd.) was used. While the column was retained at 60° C., 10^−4 M sodium hydroxide solution as an eluent was used at a flow rate of 1.0 mL/min. The resulting signals were collected and analyzed with a data analysis software (SmartChrom, manufactured by KYA Technologies Co., Ltd.).

On to `O=C[C@@H](O)[C@H](O)[C@H](O)[C@H](O)CO` [D-altrose], for which the “activity of the enzyme for the substrate (in words)” value (from here on “activity of the enzyme”) in assay [1] is “never exerts any activities”.

Consider `O=C[C@@H](O)[C@@H](O)[C@H](O)[C@H](O)CO` [D-mannose], for which the “activity of the enzyme” value in assay [1] was “exerted activities”.

`O=C[C@H](O)[C@@H](O)[C@H](O)[C@H](O)CO` [D-glucose]: the “activity of the enzyme” value in assay [1] is recorded as “never exerts any activities”.

Consider `O=C[C@@H](O)[C@@H](O)[C@@H](O)CO` [L-ribose], for which, in assay [1], the “relative activity to the activity on L-ribose” value (shortened to “relative activity”) is 100% and the “activity of the enzyme” value is listed as “highest activity”. Also, the “product generated from the substrate” value in assay [2] is recorded as “L-ribulose is generated”.

On to `O=C(CO)[C@@H](O)[C@H](O)[C@H](O)CO` [D-fructose], for which the “product generated from the substrate” value in assay [2] is recorded as “D-mannose is generated”.

Turning to `O=C[C@@H](O)[C@@H](O)[C@H](O)CO` [D-lyxose], in assay [1], the “relative activity” value worked out at 15.3% and the “activity of the enzyme” value is “exerted activities”.

Take `O=C[C@@H](O)[C@@H](O)[C@@H](O)[C@H](O)CO` [D-tallose]: in assay [1], the “relative activity” value is 56.9% and the “activity of the enzyme” value is given as “exerted activities”.

Consider `O=C[C@@H](O)[C@@H](O)[C@@H](O)[C@@H](O)CO` [L-allose], for which, in assay [1], the “relative activity” value turned out to be 2.2% and the “activity of the enzyme” value was “exerted activities”.

Consider `O=C[C@H](O)[C@H](O)[C@H](O)[C@H](O)CO` [D-allose], for which the “activity of the enzyme” value in assay [1] is given as “never exerts any activities”.

Regarding `O=C(CO)[C@@H](O)[C@@H](O)[C@@H](O)CO` [L-psicose], the “product generated from the substrate” value in assay [2] is listed as “L-allose is generated”.

As for `O=C(CO)[C@@H](O)[C@@H](O)[C@H](O)CO` [D-tagatose], the “product generated from the substrate” value in assay [2] is reported as “D-tallose is generated”.
